Results: patent US20070117743A1, “New antitumoral compounds” (priority 2003, published 2007)
Like-named read-outs stand apart in the source and are kept apart here.

Experiments:
Assay type in all cases: cell-based, human
A-549 = experiment: SRB colorimetric assay of cell growth and viability, A-549; conditions: 48 hours exposure; for GI50: read-out: GI50 A-549; for CC50: read-out: LC50 A-549
SK-MEL-28 = experiment: SRB colorimetric assay of cell growth and viability, SK-MEL-28; conditions: 48 hours exposure; for CC50: read-out: LC50 MEL-28
HT-29 = experiment: SRB colorimetric assay of cell growth and viability, HT-29; conditions: 48 hours exposure; for GI50: read-out: GI50 HT-29; for CC50: read-out: LC50 HT-29
LoVo = experiment: SRB colorimetric assay of cell growth and viability, LoVo; conditions: 48 hours exposure; for CC50: read-out: LC50 LOVO
LoVo-Dox = experiment: SRB colorimetric assay of cell growth and viability, LoVo-Dox; conditions: 48 hours exposure; for CC50: read-out: LC50 LOVO-DOX
Summary of the method: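 Here, cells grow drug-free for 18 h, then receive sample dilutions from 10 down to 10^−8 μg/mL for 48 h at 37° C. Protein-bound SRB is solubilized in Tris and quantified at 490 nm.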

DU-145 = experiment: SRB colorimetric assay of cell growth and viability, DU-145; conditions: 48 hours exposure
LNCaP = experiment: SRB colorimetric assay of cell growth and viability, LNCaP; conditions: 48 hours exposure; for GI50: read-out: GI50 LN-caP; for CC50: read-out: LC50 LN-caP
SK-BR-3 = experiment: SRB colorimetric assay of cell growth and viability, SK-BR-3; conditions: 48 hours exposure
IGROV-1 = experiment: SRB colorimetric assay of cell growth and viability, IGROV-1; conditions: 48 hours exposure
IGROV-ET = experiment: SRB colorimetric assay of cell growth and viability, IGROV-ET; conditions: 48 hours exposure; for CC50: read-out: LC50 IGROV-ET
HeLa = experiment: SRB colorimetric assay of cell growth and viability, HeLa; conditions: 48 hours exposure; for CC50: read-out: LC50 HELA
HeLa-APL = experiment: SRB colorimetric assay of cell growth and viability, HeLa-APL; conditions: 48 hours exposure; for CC50: read-out: LC50 HELA-APL
K-562 = experiment: SRB colorimetric assay of cell growth and viability, K-562; conditions: 48 hours exposure; for CC50: read-out: LC50 K-562
PANC-1 = experiment: SRB colorimetric assay of cell growth and viability, PANC-1; conditions: 48 hours exposure; for CC50: read-out: LC50 PANC-1

C/C=C1\NC(=O)[C@H](Cc2ccccc2)NC(=O)[C@@H](C(C)C)NC(=O)[C@@H]([C@@H](C)CC)NC(=O)[C@H](NC(=O)[C@H](NC(=O)[C@H](CCCNC(=O)CCCC[C@@H]2SC[C@@H]3NC(=O)N[C@@H]32)NC(=O)[C@H]2CCCN2C(=O)[C@H](NC(=O)[C@@H](NC(=O)[C@@H](NC(=O)[C@H](NC(=O)CCCC(C)C)C(C)C)[C@@H](C)O)C(C)C)C(C)C)[C@@H](C)CC)[C@@H](C)OC(=O)[C@H](C(C)C)NC1=O [Compound 99, [Orn(Biot)^8]-Kahalalide F]
TGI A-549 (A-549; A-549): 2.05E−06 Molar
GI50 (A-549; A-549): 0.886 µM
CC50 (A-549; A-549): 4.76 µM
GI50 (SK-MEL-28; SRB): 0.839 µM
TGI MEL-28 (SK-MEL-28; SRB): 1.73E−06 Molar
CC50 (SK-MEL-28; SRB): 3.54 µM
TGI HT-29 (HT-29; HT-29): 2.41E−07 Molar
GI50 (HT-29; HT-29): 0.124 µM
CC50 (HT-29; HT-29): 0.467 µM
GI50 (LoVo; LOVO): 0.129 µM
TGI LOVO (LoVo; LOVO): 2.53E−07 Molar
CC50 (LoVo; LOVO): 0.495 µM
GI50 (LoVo-Dox; LOVO-DOX): 0.139 µM
TGI LOVO-DOX (LoVo-Dox; LOVO-DOX): 3.10E−07 Molar
CC50 (LoVo-Dox; LOVO-DOX): 3.93 µM
GI50 (DU-145; SRB): 0.757 µM
LC50 (concentration causing 50% net cell kill) (DU-145; SRB): 3.26 µM
TGI DU-145 (DU-145; SRB): 1.57E−06 Molar
TGI LN-caP (LNCaP; SRB): 1.99E−06 Molar
GI50 (LNCaP; SRB): 1.02 µM
CC50 (LNCaP; SRB): 3.89 µM
GI50 (SK-BR-3; SRB): 0.14 µM
LC50 (SK-BR-3; SRB): 0.575 µM
TGI SK-BR-3 (SK-BR-3; SRB): 2.84E−07 Molar
GI50 (IGROV-1; SRB): 0.268 µM
LC50 (concentration causing 50% net cell killing) (IGROV-1; SRB): 2.69 µM
TGI IGROV (IGROV-1; SRB): 8.98E−07 Molar
GI50 (IGROV-ET; SRB): 0.874 µM
TGI IGROV-ET (IGROV-ET; SRB): 1.88E−06 Molar
CC50 (IGROV-ET; SRB): 4.04 µM
GI50 (HeLa; HELA): 0.329 µM
TGI HELA (HeLa; HELA): 1.19E−06 Molar
CC50 (HeLa; HELA): 3.51 µM
GI50 (HeLa-APL; HELA-APL): 0.951 µM
TGI HELA-APL (HeLa-APL; HELA-APL): 2.10E−06 Molar
CC50 (HeLa-APL; HELA-APL): 4.65 µM
GI50 (K-562; K-562): 3.3 µM
TGI K-562 (K-562; K-562): 5.87E−06 Molar
CC50 (K-562; K-562): 5.87 µM
GI50 (PANC-1; PANC-1): 1.5 µM
TGI PANC-1 (PANC-1; PANC-1): 3.50E−06 Molar
CC50 (PANC-1; PANC-1): 5.87 µM

[(4RS)-MeHex^14]-KF [Compound 17]
TGI A-549 (A-549): 7.51E−07 Molar
GI50 (A-549): 0.24 µM
CC50 (A-549): 2.89 µM
GI50 (SK-MEL-28): 1.3 µM
TGI MEL-28 (SK-MEL-28): 2.54E−06 Molar
CC50 (SK-MEL-28): 4.96 µM
TGI HT-29 (HT-29): 2.84E−07 Molar
GI50 (HT-29): 0.147 µM
CC50 (HT-29): 0.55 µM
GI50 (LoVo): 0.141 µM
TGI LOVO (LoVo): 2.67E−07 Molar
CC50 (LoVo): 0.503 µM
GI50 (LoVo-Dox): 0.18 µM
TGI LOVO-DOX (LoVo-Dox): 3.66E−07 Molar
CC50 (LoVo-Dox): 1.27 µM
GI50 (DU-145): 0.252 µM
LC50 (concentration causing 50% net cell kill) (DU-145): 2.65 µM
TGI DU-145 (DU-145): 8.39E−07 Molar
TGI LN-caP (LNCaP): 2.10E−06 Molar
GI50 (LNCaP): 0.934 µM
CC50 (LNCaP): 4.75 µM
GI50 (SK-BR-3): 0.162 µM
LC50 (SK-BR-3): 0.606 µM
TGI SK-BR-3 (SK-BR-3): 3.14E−07 Molar
GI50 (IGROV-1): 0.185 µM
LC50 (concentration causing 50% net cell killing) (IGROV-1): 1.49 µM
TGI IGROV (IGROV-1): 3.96E−07 Molar
GI50 (IGROV-ET): 0.209 µM
TGI IGROV-ET (IGROV-ET): 4.24E−07 Molar
CC50 (IGROV-ET): 1.84 µM
GI50 (HeLa): 0.744 µM
TGI HELA (HeLa): 1.71E−06 Molar
CC50 (HeLa): 3.92 µM
GI50 (HeLa-APL): 0.758 µM
TGI HELA-APL (HeLa-APL): 1.86E−06 Molar
CC50 (HeLa-APL): 4.59 µM
GI50 (K-562): 2.37 µM
TGI K-562 (K-562): 4.07E−06 Molar
CC50 (K-562): ≥ 6.77 µM
GI50 (PANC-1): 3.82 µM
TGI PANC-1 (PANC-1): 6.77E−06 Molar
CC50 (PANC-1): ≥ 6.77 µM

[(c/t)-4-Me-cHexa^14]-KF [Compound 14]
TGI A-549 (A-549): 2.15E−06 Molar
GI50 (A-549): 0.933 µM
CC50 (A-549): 4.95 µM
GI50 (SK-MEL-28): 0.886 µM
TGI MEL-28 (SK-MEL-28): 1.89E−06 Molar
CC50 (SK-MEL-28): 4.01 µM
TGI HT-29 (HT-29): 4.22E−07 Molar
GI50 (HT-29): 0.189 µM
CC50 (HT-29): 1.83 µM
GI50 (LoVo): 0.0993 µM
TGI LOVO (LoVo): 2.34E−07 Molar
CC50 (LoVo): 0.55 µM
GI50 (LoVo-Dox): 0.144 µM
TGI LOVO-DOX (LoVo-Dox): 2.88E−07 Molar
CC50 (LoVo-Dox): 0.576 µM
GI50 (DU-145): 0.612 µM
LC50 (concentration causing 50% net cell kill) (DU-145): 3.36 µM
TGI DU-145 (DU-145): 1.48E−06 Molar
TGI LN-caP (LNCaP): 2.87E−06 Molar
GI50 (LNCaP): 1.34 µM
CC50 (LNCaP): 6.11 µM
GI50 (SK-BR-3): 0.152 µM
LC50 (SK-BR-3): 0.657 µM
TGI SK-BR-3 (SK-BR-3): 3.17E−07 Molar
GI50 (IGROV-1): 0.382 µM
LC50 (concentration causing 50% net cell killing) (IGROV-1): 3.47 µM
TGI IGROV (IGROV-1): 1.22E−06 Molar
GI50 (IGROV-ET): 0.846 µM
TGI IGROV-ET (IGROV-ET): 1.94E−06 Molar
CC50 (IGROV-ET): 4.47 µM
GI50 (HeLa): 0.779 µM
TGI HELA (HeLa): 1.84E−06 Molar
CC50 (HeLa): 4.37 µM
GI50 (HeLa-APL): 0.611 µM
TGI HELA-APL (HeLa-APL): 1.72E−06 Molar
CC50 (HeLa-APL): 4.56 µM
GI50 (K-562): 2.02 µM
TGI K-562 (K-562): 3.58E−06 Molar
CC50 (K-562): 6.32 µM
GI50 (PANC-1): 2.01 µM
TGI PANC-1 (PANC-1): 6.71E−06 Molar
CC50 (PANC-1): 6.71 µM

[D,L-Ser^2]-KF [Compound 64]
TGI A-549 (A-549; SRB): 6.75E−06 Molar
GI50 (A-549; SRB): ≥ 6.75 µM
CC50 (A-549; SRB): ≥ 6.75 µM
GI50 (SK-MEL-28): ≥ 6.75 µM
TGI MEL-28 (SK-MEL-28): 6.75E−06 Molar
CC50 (SK-MEL-28): ≥ 6.75 µM
TGI HT-29 (HT-29; SRB): 6.75E−06 Molar
GI50 (HT-29; SRB): ≥ 6.75 µM
CC50 (HT-29; SRB): ≥ 6.75 µM
GI50 (LoVo; SRB): ≥ 6.75 µM
TGI LOVO (LoVo; SRB): 6.75E−06 Molar
CC50 (LoVo; SRB): ≥ 6.75 µM
GI50 (LoVo-Dox; SRB): ≥ 6.75 µM
TGI LOVO-DOX (LoVo-Dox; SRB): 6.75E−06 Molar
CC50 (LoVo-Dox; SRB): ≥ 6.75 µM
GI50 (DU-145): ≥ 6.75 µM
LC50 (concentration causing 50% net cell kill) (DU-145): ≥ 6.75 µM
TGI DU-145 (DU-145): 6.75E−06 Molar
TGI LN-caP (LNCaP): 3.99E−06 Molar
GI50 (LNCaP): 1.8 µM
CC50 (LNCaP): ≥ 6.75 µM
GI50 (SK-BR-3): ≥ 6.75 µM
LC50 (SK-BR-3): ≥ 6.75 µM
TGI SK-BR-3 (SK-BR-3): 6.75E−06 Molar
GI50 (IGROV-1): ≥ 6.75 µM
LC50 (concentration causing 50% net cell killing) (IGROV-1): ≥ 6.75 µM
TGI IGROV (IGROV-1): 6.75E−06 Molar
GI50 (IGROV-ET): ≥ 6.75 µM
TGI IGROV-ET (IGROV-ET): 6.75E−06 Molar
CC50 (IGROV-ET): ≥ 6.75 µM
GI50 (HeLa; SRB): ≥ 6.75 µM
TGI HELA (HeLa; SRB): 6.75E−06 Molar
CC50 (HeLa; SRB): ≥ 6.75 µM
GI50 (HeLa-APL; SRB): ≥ 6.75 µM
TGI HELA-APL (HeLa-APL; SRB): 6.75E−06 Molar
CC50 (HeLa-APL; SRB): ≥ 6.75 µM
GI50 (K-562; SRB): ≥ 6.75 µM
TGI K-562 (K-562; SRB): 6.75E−06 Molar
CC50 (K-562; SRB): ≥ 6.75 µM
GI50 (PANC-1; SRB): ≥ 6.75 µM
TGI PANC-1 (PANC-1; SRB): 6.75E−06 Molar
CC50 (PANC-1; SRB): ≥ 6.75 µM
